Assay results: ChEMBL document CHEMBL4627246, “Pyroglutamide-Based P2X7 Receptor Antagonists Targeting Inflammatory Bowel Disease” (J Med Chem, 2020)

Experiments:
Assay type in all cases: cell-based
MOLT-4 = assay: Cytotoxicity against human MOLT4 cells assessed as effect on cell growth at 10 uM incubated for 48 hrs by sulforhodamine B assay; details: molt-4, 48 h
SK-OV-3 = assay: Cytotoxicity against human SKOV3 cells assessed as effect on cell growth at 10 uM incubated for 48 hrs by sulforhodamine B assay; details: sk-ov-3, 48 h
BT-549 = assay: Cytotoxicity against human BT549 cells assessed as effect on cell growth at 10 uM incubated for 48 hrs by sulforhodamine B assay; details: bt-549, 48 h
OVCAR-4 = assay: Cytotoxicity against human OVCAR4 cells assessed as effect on cell growth at 10 uM incubated for 48 hrs by sulforhodamine B assay; details: ovcar-4, 48 h
A549 = assay: Cytotoxicity against human A549/ATCC cells assessed as effect on cell growth at 10 uM incubated for 48 hrs by sulforhodamine B assay; details: a549, 48 h
SNB-19 = assay: Cytotoxicity against human SNB19 cells assessed as effect on cell growth at 10 uM incubated for 48 hrs by sulforhodamine B assay; details: snb-19, 48 h
NCI-H23 = assay: Cytotoxicity against human NCI-H23 cells assessed as effect on cell growth at 10 uM incubated for 48 hrs by sulforhodamine B assay; details: nci-h23, 48 h
HT-29 = assay: Cytotoxicity against human HT-29 cells assessed as effect on cell growth at 10 uM incubated for 48 hrs by sulforhodamine B assay; details: ht-29, 48 h
SF-295 = assay: Cytotoxicity against human SF295 cells assessed as effect on cell growth at 10 uM incubated for 48 hrs by sulforhodamine B assay; details: sf-295, 48 h
LOX IMVI = assay: Cytotoxicity against human LOXIMVI cells assessed as effect on cell growth at 10 uM incubated for 48 hrs by sulforhodamine B assay
T47D = assay: Cytotoxicity against human T47D cells assessed as effect on cell growth at 10 uM incubated for 48 hrs by sulforhodamine B assay
SK-MEL-2 = assay: Cytotoxicity against human SK-MEL-2 cells assessed as effect on cell growth at 10 uM incubated for 48 hrs by sulforhodamine B assay; details: sk-mel-2, 48 h
NCI-H460 = assay: Cytotoxicity against human NCI-H460 cells assessed as effect on cell growth at 10 uM incubated for 48 hrs by sulforhodamine B assay; details: nci-h460, 48 h
SW-620 = assay: Cytotoxicity against human SW620 cells assessed as effect on cell growth at 10 uM incubated for 48 hrs by sulforhodamine B assay; details: sw-620, 48 h
KM12 = assay: Cytotoxicity against human KM12 cells assessed as effect on cell growth at 10 uM incubated for 48 hrs by sulforhodamine B assay; details: km12, 48 h
OVCAR-8 = assay: Cytotoxicity against human OVCAR8 cells assessed as effect on cell growth at 10 uM incubated for 48 hrs by sulforhodamine B assay; details: ovcar-8, 48 h
NCI-H522 = assay: Cytotoxicity against human NCI-H522 cells assessed as effect on cell growth at 10 uM incubated for 48 hrs by sulforhodamine B assay; details: nci-h522, 48 h
SNB-75 = assay: Cytotoxicity against human SNB75 cells assessed as effect on cell growth at 10 uM incubated for 48 hrs by sulforhodamine B assay; details: snb-75, 48 h
IGROV-1 = assay: Cytotoxicity against human IGROV1 cells assessed as effect on cell growth at 10 uM incubated for 48 hrs by sulforhodamine B assay; details: igrov-1, 48 h
RPMI-8226 = assay: Cytotoxicity against human RPMI8226 cells assessed as effect on cell growth at 10 uM incubated for 48 hrs by sulforhodamine B assay; details: rpmi-8226, 48 h

Measured: Activity

COc1ccc(NC(=O)[C@@H]2CCC(=O)N2)cc1OC
Non-Toxic: all assays above

O=C(NCc1ccc(Cl)cc1Cl)[C@@H]1CCC(=O)N1C(c1ccccc1)c1ccccc1
Non-Toxic: all assays above

O=C(NCc1ccc(Cl)cc1Cl)[C@@H]1CCC(=O)N1c1ccc(Cl)cc1
Non-Toxic: all assays above

COc1cc(CN/C=C2\C[C@@H](C(=O)NCc3ccc(Cl)cc3Cl)NC2=O)cc(OC)c1OC
Non-Toxic: all assays above

O=C(NCc1ccccc1Cl)[C@@H]1CCC(=O)N1Cc1ccccc1
Non-Toxic: all assays above

COc1ccc(CNC(=O)[C@@H]2CCC(=O)N2Cc2ccc(Cl)cc2Cl)c(OC)c1
Non-Toxic: all assays above

C[n+]1ccccc1C(=O)NCc1ccc(Cl)cc1Cl.[I-]
Non-Toxic: all assays above

CN1C(=O)CC[C@H]1C(=O)NCc1cccc(C(F)(F)F)c1Cl [GSK1482160]
Non-Toxic: all assays above

O=C(NCc1ccc(Cl)cc1Cl)[C@@H]1CCC(=O)N1c1nccs1
Non-Toxic: all assays above
